According to patent US6737410B1, “Inhibitors of protein farnesyl transferase” (Warner-Lambert Company, priority 1997, dated 2004):
Where two headings read alike, the source gives them in different places.

Columns and labels:
[1] = test system: ras protein farnesylation in ras-transformed cells (H-ras-transformed HIH 3T3 cells); assay: Gel shift assay (inhibition of ras farnesylation in cells); assay type: cell-based; conditions: for Gel Shift (μM) M.E.D* (minimal effective dose to observe inhibition of ras farnesylation): ras-transformed cells, 18-hour incubation
Procedure: Twenty-four hours after planting 2×10^6 ras-transformed cells per treatment condition, the farnesylation inhibitor is added at varying concentrations. Following an 18-hour incubation period, cells are lysed in phosphate-buffered saline containing 1% Triton X-100, 0.5% sodium deoxycholate, and 0.1% SDS (sodium dodecyl sulfate), pH 7.4 in the presence of several protease inhibitors (PMSF (phenylmethylsulfonylfluoride), antipain, leupeptin, pepstatin A, and aprotinin all at 1 μg/mL). Ras protein is immunoprecipitated from the supernatants by the addition of 3 μg v-H-ras Ab-2 (Y13-259 antibody from Oncogene Science). After overnight immunoprecipitation, 30 μL of a 50% protein G-Sepharose slurry (Pharmacia) is added followed by 45-minute incubation. Pellets are resuspended in 2×tris-glycine loading buffer (Novex) containing 5% β-mercaptoethanol and then denatured by 5 minutes boiling prior to electrophoresis on 14% Tris-glycine SDS gels. Using Western transfer techniques, proteins are transferred to nitrocellulose membranes followed by blocking in blocking buffer. Upon overnight incubation with primary antibody (pan-ras Ab-2 from Oncogene Science), an antimouse HRP (horse radish peroxidase) conjugate secondary antibody (Amersham) is employed for detection of the ras protein. Blots are developed using ECL(enhanced chemiluminescence) techniques (Amersham).

[2] = molecular target: T1, SF9 affinity purified rat farnesyl protein transferase (Rattus norvegicus, UniProt Q02293+Q04631); assay: PFT (farnesyl protein transferase) inhibitory activity assay; assay type: biochemical
T1 construct: made in house; host or cells: Sf9 insect cells
Procedure: The protein:farnesyl transferase (PFT) or farnesyl protein transferase (FPT) inhibitory activity of compounds of the present invention were assayed in HEPES buffer (pH 7.4) containing 5 mM potassium phosphate and 20 μM ZnCl2. The solution also contained 5 mM DTT (dithiothreitol), 5 mM MgCl2, and 0.1% PEG 8000. Assays were performed in 96-well plates (Wallec) and employed solutions composed of varying concentrations of a compound of the present invention in 100% DMSO (dimethylsulfoxide). Upon addition of both substrates, radiolabeled farnesyl pyrophosphate ([1^3H], specific activity 15 to 30 Ci/mmol, final concentration 134 nM) and (biotinyl)-Ahe-Thr-Lys-Cys-Val-Ile-Met ([3aS[3a alpha, 4 beta, 6a alpha]-hexahydro-2-oxo-1H-thieno[3,4-d]imidazole-5-pentanoic acid]-[7-aminoheptanoic acid]-Thr-Lys-Cys-Val-Ile-Met) (Ahe is 7-amino-heptanoic acid, Thr is threonine, Lys is lysine, Cys is cysteine, Val is valine, Ile is isoleucine and Met is methionine) (final concentration 0.2 μM), the enzyme reaction was started by addition of SF9 affinity purified rat farnesyl protein transferase. After incubation at 30° C. for 30 minutes, the reaction was terminated by diluting the reaction 2.5-fold with a stop buffer containing 1.5 M magnesium acetate, 0.2 M H3PO4, 0.5% BSA (bovine serum albumin), and strepavidin beads (Amersham) at a concentration of 1.3 mg/mL. After allowing the plate to settle for 30 minutes at room temperature, radioactivity was quantitated on a microBeta counter (Model 1450, Wallec). The assay was also carried out without 5 mM potassium phosphate.

[3] = test system: mammary and salivary carcinomas; conditions: daily administration, ras transgenic mice; cited from earlier work
[4] = test system: H61 cells: N1H transformed 3T3 H-ras cells; assay: Clonogenic assay (soft agar, 6 well plates); assay type: cell-based; conditions: H-ras transformed NIH 3T3 cells, colonies counted after Day 13, read-out: Soft Agar IC50 (μM), inhibition of colony formation
Procedure: Clonogenic Assay (6 Well Plates)
Sometime previous to setting up an actual test:
1. Make up 1.5% Bacto Agar in Milli-Q water and autoclave.
2. Make up 500 mL 2×DMEM-HG without phenol red by combining the following:
1 bottle DMEM base powder (Sigma D-5030)
Adjust pH to 7.1 with HCl; filter sterilize.
1. Set up makeshift water bath (beaker of water with thermometer, on hot plate) in the hood. Keep water temperature between 37° C. to 43° C.
2. […] 1.5% Bacto Agar for approximately 2 minutes on high, or until completely melted. Then let it cool somewhat before using it. (You can keep it from resolidifying by setting the bottle on the hot plate.)
Depending on the volume of each layer needed, use either 50 mL conical tubes or 200 mL turnip tubes which can be floated in the “water bath”.
4. Add 1 mL of bottom layer agar/medium to each well: deliver 1 mL warm agar/medium to a well; then using the tip of the pipet, spread the agar/medium around to completely cover the bottom. Repeat with next well.
5. Allow the plates to set at room temperature for about 5 minutes until the bottom layer solidifies.
6. Label sterile Falcon 2054 (12×75 mm) tubes and add appropriate volume of drug solutions into them.
7. Aliquot 4 μL of DMSO or drug solution per 1 mL of agar/medium to appropriate tubes; then add the agar/medium/cells to each tube. Always add 1 mL more than will actually be needed. Mix up and down in the pipet (gently); then deliver 1 mL to the center of each well. The upper layer is less viscous, so it will generally spread out over the bottom layer unaided. If necessary, rotate the plane of the plate gently to spread the top layer evenly over the bottom layer.
8. Let plates set for 5 or 10 minutes at room temperature to solidify, then put into 5% CO2, 37° C. incubator.
9. On Day 13, add 0.5 mL of INT (tetrazolium 1 mg/mL in Milli-Q H2O, filter sterilized) and return plates to incubator.

[5] = test system: human lung carcinoma with K-ras mutation and p53 deletion; conditions: nude mice; cited from earlier work
[6] = test system: EJ-1 human bladder carcinoma, HT1080 human fibrosarcoma, and human colon carcinoma xenografts; conditions: 100 mg/kg, nude mice; cited from earlier work
[7] = HEPES buffer pH 7.4, without 5 mM potassium phosphate, read-out: IC50 (μM) Hepes
[8] = HEPES buffer pH 7.4 containing 5 mM potassium phosphate, read-out: IC50 (μM) 5 mM PO4•^2 Hepes
[9] = Example 2 compared with Example 1

Row | Compound | Gel Shift (μM) M.E.D* (minimal effective dose to observe inhibition of ras farnesylation) [1] | IC50 [2, 7] [µM] | IC50 [2, 8] [µM] | further results
1 | CN(C(=O)[C@H](Cc1c[nH]cn1)NC(=O)OCc1ccccc1)[C@@H](Cc1ccc(OCc2ccccn2)cc1)C(=O)NCC(C)(C)c1ccccc1 [Example 4, [S-(R*,R*)]-[2-(1H-Imidazol-4-yl)-1-(methyl-{1-(2-methyl-2-phenyl-propylcarbamoyl)-2-[4-(pyridin-2-ylmethoxy)-phenyl]-ethyl}-carbamoyl)-ethyl]-carbamic acid benzyl ester] | ≦0.05 μM | 0.38 | 0.006 | 
2 | CC[C@H](C)[C@@H](CO[C@@H](Cc1ccccc1)C(=O)N[C@@H](CCS(C)(=O)=O)C(=O)OC(C)C)NC[C@@H](N)CS [L744,832] |  |  |  | effect on mammary and salivary carcinomas [3]: tumor regression
3 | CN(C(=O)[C@@H](Cc1c[nH]cn1)NC(=O)OCc1ccccc1)[C@@H](Cc1ccc(OCc2ccccc2)cc1)C(=O)NCCOCc1ccccc1 (relative stereo) [Example 1, [R-(R*,S*)]-[1-{[1-(2-Benzyloxy-ethylcarbamoyl)-2-(4-benzyloxy-phenyl)-ethyl]-methyl-carbamoyl}-2-(1H-imidazol-4-yl)-ethyl]-carbamic acid benzyl ester] | 1 µM | 7 | 0.4 | activity as a ras farnesyl transferase inhibitor ([2]; stated in words): submicromolar; IC50 [4]: 15.1 µM
4 | CN(C(=O)[C@H](Cc1cnc[nH]1)NC(=O)OCc1ccccc1)[C@@H](Cc1ccc(OCc2ccccc2)cc1)C(=O)NCC1(c2ccccc2)CCC1 (relative stereo) [Example 6, [S-(R*,R*)]-[1-{[2-4-Benzyloxy-phenyl)-1-[(1-phenyl-cyclobutylmethyl)-carbamoyl]-ethyl}-methyl-carbamoyl)-2-(3H-imidazol-4-yl)-ethyl]-carbamic acid benzyl ester] | ≦0.05 μM | 1.01 | 0.013 | 
5 | CN(C(=O)[C@H](Cc1c[nH]cn1)NC(=O)OCc1ccccc1)[C@@H](Cc1ccc(OCc2ccccc2)cc1)C(=O)NCC(C)(C)c1ccccc1 [Example 3, [S-(R*,R*)]-[1-{[2-(4-Benzyloxy-phenyl)-1-(2-methyl-2-phenyl-propylcarbamoyl)-ethyl]-methyl-carbamoyl}-2-(1H-imidazol-4-yl)-ethyl]-carbamic acid benzyl ester] | 0.05 µM | 0.31 | 0.007 | IC50 ([4]; Mus musculus, NIH3T3, 312 h): 0.1 µM
6 | CN(C(=O)[C@H](Cc1c[nH]cn1)NC(=O)OCc1ccccc1)[C@@H](Cc1ccc(OCc2ccccc2)cc1)C(=O)NCCc1ccccc1 (relative stereo) [Example 2, [S-(R*,R*)]-[1-{[2-(4-Benzyloxy-phenyl)-1-phenethylcarbamoyl-ethyl]-methyl-carbamoyl}-2-(1H-imidazol-4-yl)-ethyl]-carbamic acid benzyl ester] | 0.2 µM | 1.4 | 0.032 | increase in cellular activity [1, 9]: 5 fold; increase in activity against the enzyme [2, 9]: 10 fold; IC50 [4]: 0.58 µM
7 | CN(C(=O)[C@H](Cc1cnc[nH]1)NC(=O)OCc1ccccc1)[C@@H](Cc1ccccc1)C(=O)NCC(C)(C)c1ccccc1 [Example 7, [S-(R*,R*)]-(2-(3H-Imidazol-4-yl)-1-{methyl-[1-(2-methyl-2-phenyl-propyl-carbamoyl)-2-phenyl-ethyl]-carbamoyl}-ethyl)-carbamic acid benzyl ester] | ≦0.05 μM | 0.26 | 0.005 | 
8 | CC(C)C[C@@H](C(=O)NCC(C)(C)c1ccccc1)N(C)C(=O)[C@H](Cc1cnc[nH]1)NC(=O)OCc1ccccc1 [Example 8, [S-(R*,R*)]-(2-(3H-Imidazol-4-yl)-1-{methyl-[3-methyl-1-(2-methyl-2-phenyl-propylcarbamoyl)-butyl]-carbamoyl}-ethyl)-carbamic acid benzyl ester] | ≦0.05 μM | 1.76 | 0.01 | 
9 | CN(Cc1ccccc1)C(=O)N[C@@H](Cc1c[nH]cn1)C(=O)N(C)[C@@H](Cc1ccc(OCc2ccccc2)cc1)C(=O)NCC(C)(C)c1ccccc1 [Example 5, [S-(R*,R*)]-2(3-Benzyl-3-methyl-ureido)-N-[2-(4-benzyloxy-phenyl)-1-(2-methyl-2-phenyl-propyl-carbamoyl)-ethyl]-3-(1H-imidazol-4-yl)-N-methyl-propionamide] | ≦0.05 μM | 0.012 | 0.008 | 
10 | CSCC[C@H](NC(=O)c1ccc(NC[C@@H](N)CS)cc1-c1ccccc1)C(=O)O [FT1276] |  |  |  | tumor growth of human lung carcinoma [5]: selectively block tumor growth
11 | COC(=O)[C@H](CCSC)NC(=O)[C@H](/C=C\[C@@H](/C=C/[C@@H](N)CS)C(C)C)Cc1ccccc1 [Example B1086] |  |  |  | tumor growth by xenografts [6]: inhibit tumor growth
